Literature values, collected in patent US6696551B1, “225Ac-HEHA and related compounds, methods of synthesis and methods of use” (The United States of America as represented by the …, priority 1999, dated 2004).

For `O=C(O)CN(CC(=O)O)[C@H](Cc1ccc([N+](=O)[O-])cc1)CN(CC(=O)O)[C@H]1CCCC[C@@H]1N(CC(=O)O)CC(=O)O` (relative stereo) [CHXA″-DTPA, N[(R)-2-amino-3-(4-nitrophenyl)propyl]-trans-(S,S)-cyclohexane-1,2-diamine-N,N,N′,N″,N″-pentaacetic acid], the “maximum tolerated dose (MTD)” value (^225Ac chelate, mice) is listed as “approximately 100 kBq” and the mouse mortality (higher doses, within eight days) is listed as 100%.
